Activity calls are given as the source filed them. No cut-off for these calls is given here.
Columns and labels:
[1] = target: T1, Muscarinic acetylcholine receptor M1 (Homo sapiens) (UniProt P11229); assay: Antagonist activity at human muscarinic M1 receptor at 30 uM; assay type: functional
T1 sequence (whole entry): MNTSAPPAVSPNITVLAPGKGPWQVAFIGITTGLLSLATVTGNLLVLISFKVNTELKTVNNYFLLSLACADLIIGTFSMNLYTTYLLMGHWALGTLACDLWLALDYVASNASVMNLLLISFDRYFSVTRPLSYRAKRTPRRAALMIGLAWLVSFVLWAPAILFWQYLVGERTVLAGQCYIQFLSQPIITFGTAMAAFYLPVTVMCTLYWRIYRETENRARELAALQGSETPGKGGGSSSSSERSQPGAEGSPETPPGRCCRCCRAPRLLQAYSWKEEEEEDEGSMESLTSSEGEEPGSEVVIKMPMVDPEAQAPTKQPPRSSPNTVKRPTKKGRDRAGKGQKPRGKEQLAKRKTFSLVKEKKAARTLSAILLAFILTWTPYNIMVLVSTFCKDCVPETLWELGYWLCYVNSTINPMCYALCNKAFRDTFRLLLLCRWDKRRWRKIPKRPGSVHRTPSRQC

[2] = target: T1, Muscarinic acetylcholine receptor M1 (Homo sapiens); assay: (§1) Antagonist activity at human muscarinic M1 receptor; assay type: functional; parameters: concentration or dose not given beside the values
[3] = target: T2, Muscarinic acetylcholine receptor M1 (Homo sapiens, UniProt P11229); assay: as §1; assay type: functional
T2 sequence (P11229 whole entry): T1 sequence (whole entry)

[4] = target: T1, Muscarinic acetylcholine receptor M1 (Homo sapiens); assay: Antagonist activity at human muscarinic M1 receptor expressed in CHO cells assessed as inhibition of Ach-mediated response by calcium mobilization assay; assay type: functional, cell-based
[5] = target: T3, Muscarinic acetylcholine receptor M4 (Homo sapiens, UniProt P08173); assay: Antagonist activity at human muscarinic M4 receptor by calcium mobilization assay; assay type: functional
T3 sequence (P08173 whole entry): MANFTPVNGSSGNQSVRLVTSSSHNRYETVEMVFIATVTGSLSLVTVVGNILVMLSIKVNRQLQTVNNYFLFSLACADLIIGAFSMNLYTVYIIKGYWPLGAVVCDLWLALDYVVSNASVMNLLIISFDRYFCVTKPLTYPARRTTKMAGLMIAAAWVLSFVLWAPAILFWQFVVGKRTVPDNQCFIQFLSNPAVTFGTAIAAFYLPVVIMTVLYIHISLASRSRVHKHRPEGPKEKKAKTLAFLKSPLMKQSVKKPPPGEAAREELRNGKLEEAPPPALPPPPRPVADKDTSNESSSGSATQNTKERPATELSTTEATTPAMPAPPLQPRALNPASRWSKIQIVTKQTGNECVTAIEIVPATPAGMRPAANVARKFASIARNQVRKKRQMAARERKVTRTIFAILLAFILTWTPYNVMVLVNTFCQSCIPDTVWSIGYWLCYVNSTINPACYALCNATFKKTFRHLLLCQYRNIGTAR

[6] = target: T4, Muscarinic acetylcholine receptor M5 (Homo sapiens, UniProt P08912); assay: Antagonist activity at human muscarinic M5 receptor by calcium mobilization assay; assay type: functional
T4 sequence (P08912 whole entry): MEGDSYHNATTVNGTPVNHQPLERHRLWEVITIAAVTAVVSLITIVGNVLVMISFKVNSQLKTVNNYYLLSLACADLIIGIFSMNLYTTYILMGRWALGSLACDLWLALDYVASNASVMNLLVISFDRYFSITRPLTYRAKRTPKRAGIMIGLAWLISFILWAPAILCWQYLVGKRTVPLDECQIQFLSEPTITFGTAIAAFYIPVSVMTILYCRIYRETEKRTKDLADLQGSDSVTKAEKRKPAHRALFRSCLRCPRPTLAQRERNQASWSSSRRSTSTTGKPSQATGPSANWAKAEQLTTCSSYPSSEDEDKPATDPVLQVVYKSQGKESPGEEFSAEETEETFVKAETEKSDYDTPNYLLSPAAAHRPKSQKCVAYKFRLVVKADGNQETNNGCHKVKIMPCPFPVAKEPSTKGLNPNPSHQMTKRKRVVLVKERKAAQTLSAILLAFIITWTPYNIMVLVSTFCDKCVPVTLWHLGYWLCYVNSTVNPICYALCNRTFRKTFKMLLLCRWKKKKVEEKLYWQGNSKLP

[7] = target: Muscarinic acetylcholine receptor M3 (Homo sapiens, UniProt P20309); assay: Antagonist activity at human muscarinic M3 receptor by calcium mobilization assay; assay type: functional
Chain of Muscarinic acetylcholine receptor M3 (P20309 whole entry): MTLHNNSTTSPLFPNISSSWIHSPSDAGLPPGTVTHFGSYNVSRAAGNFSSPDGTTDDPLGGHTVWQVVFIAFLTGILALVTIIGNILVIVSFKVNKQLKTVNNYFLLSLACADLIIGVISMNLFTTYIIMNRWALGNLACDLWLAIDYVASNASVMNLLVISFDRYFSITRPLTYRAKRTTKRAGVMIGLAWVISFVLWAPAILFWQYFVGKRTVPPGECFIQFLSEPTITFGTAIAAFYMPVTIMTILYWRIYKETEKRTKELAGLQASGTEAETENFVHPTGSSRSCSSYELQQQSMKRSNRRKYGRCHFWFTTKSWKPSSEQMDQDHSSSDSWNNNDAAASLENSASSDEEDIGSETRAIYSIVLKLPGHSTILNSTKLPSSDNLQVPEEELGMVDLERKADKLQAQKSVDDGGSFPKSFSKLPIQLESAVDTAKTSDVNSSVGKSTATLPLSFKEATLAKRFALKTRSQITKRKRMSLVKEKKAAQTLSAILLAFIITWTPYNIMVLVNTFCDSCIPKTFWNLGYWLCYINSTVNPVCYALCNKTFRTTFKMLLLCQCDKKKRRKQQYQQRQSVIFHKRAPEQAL

[8] = target: T5, Muscarinic acetylcholine receptor M2 (Homo sapiens, UniProt P08172); assay: Antagonist activity at human muscarinic M2 receptor by calcium mobilization assay; assay type: functional
T5 sequence (P08172 whole entry): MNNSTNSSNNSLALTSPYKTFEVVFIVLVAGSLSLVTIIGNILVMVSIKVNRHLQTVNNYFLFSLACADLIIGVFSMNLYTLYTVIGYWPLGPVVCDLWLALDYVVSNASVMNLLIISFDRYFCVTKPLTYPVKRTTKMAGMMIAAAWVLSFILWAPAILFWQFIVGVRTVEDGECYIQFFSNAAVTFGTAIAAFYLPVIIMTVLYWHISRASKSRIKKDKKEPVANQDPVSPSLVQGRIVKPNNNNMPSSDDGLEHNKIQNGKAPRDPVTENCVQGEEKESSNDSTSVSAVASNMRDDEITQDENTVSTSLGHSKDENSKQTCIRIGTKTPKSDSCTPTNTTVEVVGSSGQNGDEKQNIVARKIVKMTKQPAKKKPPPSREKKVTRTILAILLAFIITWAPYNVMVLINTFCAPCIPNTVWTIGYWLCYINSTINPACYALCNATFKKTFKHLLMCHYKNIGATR

Activity [1] | Activity [2] | IC50 ([3]; read-out: IC50) [nM] | Compound | further results
inactive | 35.9% | > 10000 | CC(C)CN1CCN(C(=O)C(Cc2ccccc2)c2ccccc2)CC1 (configuration not stated) | –
– | – | 180 | CN1CCN(C(=O)/C(=C\c2ccccc2)c2ccccc2)CC1 | –
inactive | 29.6% | > 10000 | CC1CCN(C)CCN1C(=O)C(Cc1ccccc1)c1ccccc1 (configuration not stated) | –
inactive | 24.3% | > 10000 | O=C(C(Cc1ccccc1)c1ccccc1)N1CCCNCC1 (configuration not stated) | –
inactive | 8.7% | > 10000 | C[N+]1(C)CCN(C(=O)C(Cc2ccccc2)c2ccccc2)CC1 (configuration not stated) | –
– | inactive | – | CN1CCN(C(=O)[C@@H](Cc2ccccc2)c2ccccc2)CC1 | –
– | 2.7% | 18 | CN1CCN(C(=O)[C@@](F)(Cc2ccccc2)c2ccccc2)CC1 (mixture of isomers) | inhibition [4]: Dose-dependent effect; IC50 [5]: 140 nM; IC50 [6]: 82 nM; IC50 [7]: > 1500 nM; IC50 [8]: > 1500 nM
– | inactive | – | CN1CCC(N2CCN(C(=O)C(Cc3ccccc3)c3ccccc3)CC2)CC1 (configuration not stated) | –
– | 2.4% | 44 | CN1CCN(C(=O)C(Cc2ccccc2)c2ccccc2)CC1 (racemic) | –
inactive | 3.5% | > 10000 | CN(C)CCNC(=O)C(Cc1ccccc1)c1ccccc1 (configuration not stated) | –
– | 2.2% | 38 | CCN1CCCN(C(=O)C(Cc2ccccc2)c2ccccc2)CC1 (configuration not stated) | –
– | 39.1% | > 10000 | CN1CCN(C(=O)C(C)(Cc2ccccc2)c2ccccc2)CC1 (configuration not stated) | –
– | 6.43% | 370 | O=C(C(Cc1ccccc1)c1ccccc1)N1CC[C@H]2CCCN2CC1 (some centres not stated) | IC50 ([3]; read-out: pIC50 (converted)): 2140 nM
inactive | 62.8% | > 10000 | CN1CCN(C(=O)C(Cc2ccccc2)c2ccccc2)CC1c1ccccc1 (configuration not stated) | –
– | 3.5% | 880 | CN1CCN(C(=O)C(Cc2ccncc2)c2ccccc2)CC1 (configuration not stated) | –
– | 0.5% | 2000 | O=C(C(Cc1ccccc1)c1ccccc1)N1CCN2CCCCC2C1 (configuration not stated) | –
– | 2% | 100 | CN1CCCN(C(=O)C(Cc2ccccc2)c2ccccc2)CC1 (configuration not stated) | –
– | 1.3% | 440 | CC(C)N1CCN(C(=O)C(Cc2ccccc2)c2ccccc2)CC1 (configuration not stated) | –
– | 3.5% | 3800 | O=C(C(Cc1ccccc1)c1ccccc1)N1CCC(N2CCCC2)CC1 (configuration not stated) | –

Activity [1] | Activity [2] | IC50 ([3]; read-out: IC50) [nM] | Compound | further results
– | 3.4% | 240 | CN1CCN(C(=O)[C@H](Oc2ccccc2)c2ccccc2)CC1 (mixture of isomers) | –
inactive | 37.1% | > 10000 | CN(C)CCN(C)C(=O)C(Cc1ccccc1)c1ccccc1 (configuration not stated) | –
– | – | 2500 | CN1CCN(C(=O)C2(c3ccccc3)CC2c2ccccc2)CC1 (configuration not stated) | –
inactive | 6.7% | > 10000 | CN1C[C@@H]2CN(C(=O)C(Cc3ccccc3)c3ccccc3)C[C@@H]2C1 (some centres not stated) | –
inactive | 26.1% | > 10000 | O=C(C(Cc1ccccc1)c1ccccc1)N1CCNCC1 (configuration not stated) | –
– | 1.5% | 140 | CN(C)CCOC(=O)C(Cc1ccccc1)c1ccccc1 (configuration not stated) | –
– | 1.4% | 100 | CC1CN(C(=O)C(Cc2ccccc2)c2ccccc2)CCN1C (configuration not stated) | –
inactive | 28.5% | > 10000 | O=C(C(Cc1ccccc1)c1ccccc1)N1CCN(c2ccncc2)CC1 (configuration not stated) | –
inactive | 10.9% | > 10000 | COCCN1CCN(C(=O)C(Cc2ccccc2)c2ccccc2)CC1 (configuration not stated) | –
– | – | 33 | CN1CCN(C(=O)[C@H](Cc2ccccc2)c2ccccc2)CC1 | inhibition [4]: Dose-dependent effect
– | 2.4% | 100 | CC(C)N1CCCN(C(=O)C(Cc2ccccc2)c2ccccc2)CC1 (configuration not stated) | –
– | 2.1% | 2400 | CN1CCN(C(=O)[C@](F)(Cc2ccccc2)c2ccccc2)CC1 (mixture of isomers) | –
inactive | 17.2% | > 10000 | CN1CCN(C(=O)C(Cc2ccccc2)c2ccccc2)C(c2ccccc2)C1 (configuration not stated) | –
– | 107% | > 10000 | CN1CCN(C(=O)[C@@H](Oc2ccccc2)c2ccccc2)CC1 (racemic) | –
– | 1.1% | 500 | CN1CCN(C(=O)C(Cc2cccnc2)c2ccccc2)CC1 (configuration not stated) | –
– | 3.1% | 29 | CN1CCN(C(=O)C(F)(Cc2ccccc2)c2ccccc2)CC1 (configuration not stated) | EC50 [3]: 28.2 nM
– | inactive | – | O=C(C(Cc1ccccc1)c1ccccc1)N1CCN(CC(F)(F)F)CC1 (configuration not stated) | –
– | 1.4% | 260 | CCN1CCN(C(=O)C(Cc2ccccc2)c2ccccc2)CC1C (configuration not stated) | –

Compound | Activity [1] | Activity [2] | IC50 ([3]; read-out: IC50) [nM] | further results
CCN1CCN(C(=O)C(Cc2ccccc2)c2ccccc2)CC1 (configuration not stated) | – | 1.8% | 570 | –
CCN1CCN(C(=O)C(Cc2ccccc2)c2ccccc2)CC1(C)C (configuration not stated) | – | 1.5% | 90 | –

From ChEMBL document CHEMBL2163227, “Synthesis and biological characterization of a series of novel diaryl amide M₁ antagonists” (Bioorg Med Chem Lett, 2012)
